The term Ki denotes the dissociation constant of the complex between target and ligand, obtained from inhibition or displacement. One may read the melting point as the temperature, or range, at which the solid turns liquid.

The values that follow come from patent US9518033B2, “(4E)-4-(4-substituted benzylideneamino)-2,3-dihydro-3-substituted-2-thioxothiazole-5-carbonitriles as A2AR antagonist and process for preparation thereof” (COUNCIL OF SCIENTIFIC & INDUSTRIAL RESEARCH, priority 2013, dated 2016).

One data set deals with T1, human A2AR (Homo sapiens, UniProt P29274).
T1 construct: expressed in transfected cells; host or cells: HEK 293T
T1 sequence (P29274 whole entry): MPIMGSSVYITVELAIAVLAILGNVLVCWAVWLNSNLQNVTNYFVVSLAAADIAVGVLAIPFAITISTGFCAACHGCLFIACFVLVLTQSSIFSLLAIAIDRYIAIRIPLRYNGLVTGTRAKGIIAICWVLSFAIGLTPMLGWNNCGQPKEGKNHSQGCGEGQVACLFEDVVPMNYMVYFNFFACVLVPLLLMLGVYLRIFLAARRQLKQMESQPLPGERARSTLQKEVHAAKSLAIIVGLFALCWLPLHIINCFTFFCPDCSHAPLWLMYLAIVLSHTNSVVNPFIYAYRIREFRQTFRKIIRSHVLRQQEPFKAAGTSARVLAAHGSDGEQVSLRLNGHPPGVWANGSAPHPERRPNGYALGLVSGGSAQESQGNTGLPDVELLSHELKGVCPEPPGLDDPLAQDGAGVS
As to the kind of experiment: Radioligand competitive binding assay, [3H] ZM 241385 displacement. The note with it: for Ki: membranes of transfected HEK 293T cells, 1 nM [3H] ZM 241385, read-out: Ki A2A; for A1/A2A (selectivity): ratio Ki A1 / Ki A2A; for binding affinity and selectivity (in words): A2AR over A1R. The method, then:
Cells were washed twice with ice-cold PBS (pH 7.4). Pellet of washed cells was resuspended in hypotonic lysis buffer (10 mM NaCl, 2 mM MgCl2, 1 mM DTT, 10 mM Hepes, 2 mM PMSF, pH 7.4) and sonicated (4 cycles of 10 s duration each). Homogenate were centrifuged at 2,500 rpm for 10 minutes at 4° C. Resulting supernatants was again centrifuged at 38,000 rpm for 30 minutes at 4° C. Pellets obtained were resuspended in Tris-HCl (pH 7.4) buffer. […] Aliquots of membrane proteins from both A2AR and A1R were rapidly frozen and stored at −20° C. Radioligand [^3H] […] DPCPX were purchased from American Radiolabeled Chemicals, St. Louis, USA.
About 10 μg of membrane protein was added to each well of a 96-well filter plate. Incubation buffer containing adenosine deaminase (2.5 U/ml) was added to the membrane protein and incubated at 37° C. for 1 h, to remove endogenous adenosine. Varying concentrations (1 pM to 1 μM) of test compounds of general formula A was added in duplicate and volume was adjusted to 50 μl by adding incubation buffer. […] Filter plates were incubated at 26° C. for 30 minutes and reaction was terminated by rapid filtration of unbound radioligands. Filters containing ligand bound receptors were washed three times with ice-cold washing buffer to completely remove any unbound radioligand or receptor. Finally, 100 μl of scintillation fluid was added to each well and incubated overnight at room temperature. β-counts emitted from bound radioligands ([^3H] ZM241385 and [^3H] DPCPX) were counted using β-counter. Duplicate values of β-counts per minute at corresponding concentrations (1 pM to 1 μM) were added to the data sheet of graph pad prism 4.0. Concentration values were considered as X-values and counts per minute were considered as Y-values (in duplicate). X-values were transformed into log X and Ki value was calculated using nonlinear regression (curve fit program).

The target in another data set is T2, human A1R (Homo sapiens, UniProt P30542).
T2 construct: expressed in transfected cells; host or cells: HEK 293T
T2 sequence (P30542 1-326): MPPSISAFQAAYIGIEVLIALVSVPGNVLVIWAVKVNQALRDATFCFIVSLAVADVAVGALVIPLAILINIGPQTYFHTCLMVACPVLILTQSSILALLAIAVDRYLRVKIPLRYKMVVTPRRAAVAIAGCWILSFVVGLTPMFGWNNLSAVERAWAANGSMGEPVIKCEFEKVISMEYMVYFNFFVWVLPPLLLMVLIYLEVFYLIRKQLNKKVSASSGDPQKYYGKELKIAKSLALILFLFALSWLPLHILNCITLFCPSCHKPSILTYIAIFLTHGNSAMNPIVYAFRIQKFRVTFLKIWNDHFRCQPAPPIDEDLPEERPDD
Kind of data set: Radioligand competitive binding assay, [3H] DPCPX displacement. Conditions: membranes of transfected HEK 293T cells, 1 nM [3H] DPCPX; read-out: Ki A1. Here is the method:
About 1×10^6 cells per ml of transfected HEK 293T cells with human A2AR and A1R were centrifuged at 2,500 rpm for 2 minutes in 15 ml centrifuge tubes. Cells were washed twice with ice-cold PBS (pH 7.4). Pellet of washed cells was resuspended in hypotonic lysis buffer (10 mM NaCl, 2 mM MgCl2, 1 mM DTT, 10 mM Hepes, 2 mM PMSF, pH 7.4) and sonicated (4 cycles of 10 s duration each). Homogenate were centrifuged at 2,500 rpm for 10 minutes at 4° C. Resulting supernatants was again centrifuged at 38,000 rpm for 30 minutes at 4° C. Pellets obtained were resuspended in Tris-HCl (pH 7.4) buffer. Membrane protein concentrations were determined using Lowry method (Lowry et al., 1951). Aliquots of membrane proteins from both A2AR and A1R were rapidly frozen and stored at −20° C. Radioligand [^3H] ZM 241385 and [^3H] DPCPX were purchased from American Radiolabeled Chemicals, St. Louis, USA.
About 10 μg of membrane protein was added to each well of a 96-well filter plate. Incubation buffer containing adenosine deaminase (2.5 U/ml) was added to the membrane protein and incubated at 37° C. for 1 h, to remove endogenous adenosine. Varying concentrations (1 pM to 1 μM) of test compounds of general formula A was added in duplicate and volume was adjusted to 50 μl by adding incubation buffer. Further, constant concentration of radioligands (1 nM for [^3H] ZM 241385 and 1 nM of [^3H] DPCPX) was added to respective wells and final volume was adjusted to 200 μl by adding the incubation buffer. Filter plates were incubated at 26° C. for 30 minutes and reaction was terminated by rapid filtration of unbound radioligands. Filters containing ligand bound receptors were washed three times with ice-cold washing buffer to completely remove any unbound radioligand or receptor. Finally, 100 μl of scintillation fluid was added to each well and incubated overnight at room temperature. β-counts emitted from bound radioligands ([^3H] ZM241385 and [^3H] DPCPX) were counted using β-counter. Duplicate values of β-counts per minute at corresponding concentrations (1 pM to 1 μM) were added to the data sheet of graph pad prism 4.0. Concentration values were considered as X-values and counts per minute were considered as Y-values (in duplicate). X-values were transformed into log X and Ki value was calculated using nonlinear regression (curve fit program). The calculated Ki values for A2AR and A1R are given bellow (table 1).

For data set [1], the system named is haloperidol induced catalepsy. Kind of data set: Haloperidol induced catalepsy in mice. It counts as in vivo, Swiss Albino male mice. Conditions: for catalepsy score: haloperidol 2.5 mg/kg, after 120 min. Here is the method:
Adult Swiss Albino male mice (4-6 weeks, 20-30 g) were pro-cured from National Institute of Communicable Diseases, Delhi, India and were kept under controlled conditions of temperature (22±1° C.), humidity (60±5%), and illumination (12 h light; 12 h darkness) at the animal house, Dr. B. R. Ambedkar Centre for Bio-medical Research, University of Delhi, Delhi, India. The experimental protocol met the National Guidelines on the ‘Proper Care and Use of Animals in Laboratory Research’ (Indian National Science Academy, New Delhi) and was approved by the Animal Ethics Committee of the department. The procedures adhered to the NIH Guidelines for the Care and Use of Laboratory Animals.
Double distilled filtered and deionized water (Milli-Q-system Waters, Milford, Mass.) was used through out the study. […] Mice were divided into seven groups of four mice each. […] Saline and 1% acacia in saline were injected to two control groups.
The inability of an animal to correct an externally imposed posture (Catalepsy score) was measured at different time intervals with both limbs on a square wooden block (3 cm high) by placing the animals on a flat horizontal surface. The length of time that animals held the bar without any voluntary movement was recorded, with a cutoff time of 3 min. Catalepsy score of each mice in a group was taken to compute the mean value of the group.

A further data set concerns the target T3, human A2A receptors (Homo sapiens, UniProt P29274).
T3 construct: expressed in transfected cells; host or cells: HEK 293T
As to the kind of experiment: cAMP functional assay in NECA stimulated HEK293T cells. In kind it is cell-based. Here is the method:
Standard curve was prepared using Logit-Log Paper plot by drawing percent bound (B/Bo) versus concentration of cAMP for the standards. The concentration of the cAMP in the samples was determined by interpolation.

Where [2] appears, read: 10 mg/kg ip pre-treatment, mean±SEM, n=4.

Values joined by “and” are separate entries in the source; they are usually repeats but may differ in a detail not shown here. Equal entries are not always repeated.

T3 sequence (P29274 whole entry): as the sequence (P29274 whole entry) above

With `CCCn1c(/N=C/c2ccc(Br)cc2)c(C#N)sc1=S` [Compound 2k, (4E)4-(4-bromobenzylideneamino)-3-propyl-2,3-dihydro-2-thioxothiazole-5-carbonitrile], the values for the Ki at human A2AR and on human A1R were 1.8 nM and 607 nM, respectively. Besides, on human A2AR, the “A1/A2A (selectivity)” value was found to be 337.05.
As for `CCn1c(/N=C/c2ccc(Cl)cc2)c(C#N)sc1=S` [Compound 2f, (4E)-4-(4-chlorobenzylideneamino)-3-ethyl-2,3-dihydro-2-thioxothiazole-5-carbonitrile], the “A1/A2A (selectivity)” value at human A2AR was determined as 13.76.
`N#Cc1sc(=S)n(-c2ccccc2)c1/N=C/c1ccc(Br)cc1` [Compound 2n, (4E)4-(4-bromobenzylideneamino)-3-phenyl-2,3-dihydro-2-thioxothiazole-5-carbonitrile]: the melting point fell in the range of 185 to 187 °C. Besides, on human A2AR, the Ki is 0.004 nM and 0.0042 nM. Besides, at human A1R, the Ki was 186 nM. In addition, the catalepsy score in data set [1] (setting [2]) is recorded as 0.75±0.144. The catalepsy score in data set [1] (pre-treatment at 5, 10, 15, 20 mg/kg) is given as 0.75±0.140. Further, the “catalepsy score, compound alone” value in data set [1] (without haloperidol, up to 120 minutes) is “zero”.
`Nc1nc2c(cnn2CCc2ccccc2)c2nc(-c3ccco3)nn12` [SCH58261, reference compound]: the “selectivity to A2AR” value on human A2AR (reference SCH58261) stood at 483 fold. Also, the cAMP concentration at human A2A receptors was 0.55 pmol/mL. For the same compound, the catalepsy score in data set [1] (setting [2]) was found to be 0.65±0.125; in data set [1] (10 mg/kg ip pre-treatment, mean±SEM, n=4, listed as SCH 58261) it was 0.625±0.125.
For the compound `N#Cc1sc(=S)n(CCc2ccccc2)c1/N=C/c1ccc(Br)cc1` [Compound 2m, (4E)4-(4-bromobenzylideneamino)-3-phenylethyl-2,3-dihydro-2-thioxothiazole-5-carbonitrile], at human A2AR, the Ki was found to be 0.067 nM and the “A1/A2A (selectivity)” value was found to be 3.73. Further, the Ki at human A1R was 0.25 nM.
On to `CCCCn1c(N=Cc2ccc(F)cc2)c(C#N)sc1=S` [Compound 2c, (4E)-4-flurobenzylideneamino)-3-butyl-2,3-dihydro-2-thioxothiazole-5-carbonitrile], for which, on human A2AR, the Ki was 0.027 nM and the “A1/A2A (selectivity)” value came to 618.51. The Ki at human A1R came out at 16.7 nM.
For the compound `CCn1c(/N=C/c2ccc(Br)cc2)c(C#N)sc1=S` [Compound 2j, (4E)-4-(4-Bromobenzylideneamino)-3-ethyl-2,3-dihydro-2-thioxothiazole-5-carbonitrile], on human A2AR, the Ki amounted to 0.01 nM and the “A1/A2A (selectivity)” value is 0.074.
`CCCn1c(/N=C/c2ccc(F)cc2)c(C#N)sc1=S` [Compound 2b, (4E)4-(4-fluorobenzylideneamino)-3-propyl-2,3-dihydro-2-thioxothiazole-5-carbonitrile]: on human A2AR, the “binding affinity and selectivity (in words)” value was “both high binding affinity and selectivity”; the Ki amounted to 0.03 nM; the “A1/A2A (selectivity)” value is listed as 3393.3. Besides, the Ki at human A1R is 102 nM.
As to `CCCCn1c(/N=C/c2ccc(Cl)cc2)c(C#N)sc1=S` [Compound 2h], on human A2AR, the “binding affinity and selectivity (in words)” value is “both high binding affinity and selectivity”; the Ki was determined as 9.6 nM; the “A1/A2A (selectivity)” value was 2565 and 2565.62. Further, the Ki at human A1R amounted to 24600 nM.
For the compound `N#Cc1sc(=S)n(CCc2ccccc2)c1N=Cc1ccc(F)cc1` [Compound 2d, (4E)-4-(4-flurobenzylideneamino)-3-phenylethyl-2,3-dihydro-2-thioxothiazole-5-carbonitrile], the Ki was 2.64 nM on human A2AR and 889 nM on human A1R. Moreover, the “A1/A2A (selectivity)” value on human A2AR is recorded as 336.81.
For the compound `CCn1c(/N=C/c2ccc(F)cc2)c(C#N)sc1=S` [Compound 2a, (4E)-4-(4-fluorobenzylideneamino)-3-ethyl-2,3-dihydro-2-thioxothiazole-5-carbonitrile], at human A2AR, the Ki worked out at 11 nM and the “A1/A2A (selectivity)” value came to 0.000053.
Regarding `N#Cc1sc(=S)n(-c2ccccc2)c1/N=C/c1ccc(Cl)cc1` [Compound 2i, (4E)4-(4-chlorobenzylideneamino)-3-phenyl-2,3-dihydro-2-thioxothiazole-5-carbonitrile], the melting point was in the range of 187 to 189 °C. Moreover, at human A2AR, the “binding affinity and selectivity (in words)” value was “both high binding affinity and selectivity”; the Ki was found to be 0.14 nM; the “A1/A2A (selectivity)” value is 2947 and 2947.85. The Ki on human A1R is 413 nM.
Take `N#Cc1sc(=S)n(-c2ccccc2)c1/N=C/c1ccc(F)cc1` [Compound 2e, (4E)-4-(4-flurobenzylideneamino)-3-phenyl-2,3-dihydro-2-thioxothiazole-5-carbonitrile]: on human A2AR, the Ki was 0.0047 nM and the “A1/A2A (selectivity)” value worked out at 0.13.
In the case of `CCCCn1c(/N=C/c2ccc(Br)cc2)c(C#N)sc1=S` [Compound 2l, (4E)-4-(4-bromobenzylideneamino)-3-butyl-2,3-dihydro-2-thioxothiazole-5-carbonitrile], at human A2AR, the Ki stood at 7.61 nM and the “A1/A2A (selectivity)” value stood at 0.013. In addition, the Ki at human A1R was 0.1 nM.
For the compound `CCCn1c(/N=C/c2ccc(Cl)cc2)c(C#N)sc1=S` [Compound 2g, (4E)4-(4-chlorobenzylideneamino)-3-propyl-2,3-dihydro-2-thioxothiazole-5-carbonitrile], at human A2AR, the Ki was 54.8 nM and the “A1/A2A (selectivity)” value was found to be 0.042. Further, the Ki on human A1R was 2.32 nM.
